From ChEMBL document CHEMBL4177763, “Development of Macrocyclic Peptidomimetics Containing Constrained α,α-Dialkylated Amino Acids with Potent and Selective Activity at Human Melanocortin Receptors” (J Med Chem, 2018)
Activity calls are given as the source filed them. The calls are words filed in the database; no cut-off is given here. Bridge positions count the residues as written; N and C are the ends. Square brackets hold non-standard residues; d marks the D form. Peptide text beside a SMILES is read from it. d2Nal = N[C@H](Cc1ccc2ccccc2c1)C(=O)O; Ac6c = NC1(C(=O)O)CCCCC1; Ac5c = NC1(C(=O)O)CCCC1; Ac4c = NC1(C(=O)O)CCC1; Aib = CC(C)(N)C(=O)O

Key:
[1] = target: T1, Melanocortin receptor 4 (Homo sapiens, UniProt P32245); assay: Agonist activity at human MC4R expressed in HEK293 cells assessed as induction of intracellular cAMP accumulation at 10 uM after 3 mins relative to MT-2; type: functional, cell-based
[2] = target: T2, Melanocortin receptor 5 (Homo sapiens, UniProt P33032); assay: Agonist activity at human MC5R expressed in HEK293 cells assessed as induction of intracellular cAMP accumulation at 10 uM after 3 mins relative to MT-2; type: functional, cell-based
[3] = target: T3, Melanocyte-stimulating hormone receptor (Homo sapiens, UniProt Q01726); assay: Agonist activity at human MC1R expressed in HEK293 cells assessed as induction of intracellular cAMP accumulation measured after 3 mins; type: functional, cell-based
Target sequence in this assay (Q01726 whole entry): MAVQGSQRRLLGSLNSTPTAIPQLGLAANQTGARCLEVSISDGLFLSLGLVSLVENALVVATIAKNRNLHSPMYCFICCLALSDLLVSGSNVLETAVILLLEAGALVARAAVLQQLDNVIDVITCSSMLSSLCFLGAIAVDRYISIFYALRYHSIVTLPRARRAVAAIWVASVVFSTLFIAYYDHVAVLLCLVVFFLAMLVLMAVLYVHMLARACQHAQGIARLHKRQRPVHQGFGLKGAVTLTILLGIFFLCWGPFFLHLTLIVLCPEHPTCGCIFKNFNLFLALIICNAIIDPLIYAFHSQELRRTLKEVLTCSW

[4] = target: T4, Melanocortin receptor 3 (Homo sapiens, UniProt P41968); assay: Agonist activity at human MC3R expressed in HEK293 cells assessed as induction of intracellular cAMP accumulation at 10 uM after 3 mins relative to MT-2; type: functional, cell-based
[5] = target: T1, Melanocortin receptor 4; assay: Displacement of [125I]-NDP-alpha-MSH from human MC4R expressed in HEK293 cells after 40 mins by gamma counting method; type: cell-based
[6] = target: T2, Melanocortin receptor 5; assay: Displacement of [125I]-NDP-alpha-MSH from human MC5R expressed in HEK293 cells after 40 mins by gamma counting method; type: cell-based
[7] = target: T1, Melanocortin receptor 4; assay: Agonist activity at human MC4R expressed in HEK293 cells assessed as induction of intracellular cAMP accumulation after 3 mins; type: functional, cell-based
[8] = target: T3, Melanocyte-stimulating hormone receptor; assay: Agonist activity at human MC1R expressed in HEK293 cells assessed as induction of intracellular cAMP accumulation at 10 uM measured after 3 mins relative to MT-2; type: functional, cell-based
Target sequence in this assay (Q01726 whole entry, looked up): as the sequence (Q01726 whole entry) above

[9] = target: T4, Melanocortin receptor 3; assay: Agonist activity at human MC3R expressed in HEK293 cells assessed as induction of intracellular cAMP accumulation after 3 mins; type: functional, cell-based
[10] = target: T3, Melanocyte-stimulating hormone receptor; assay: Displacement of [125I]-NDP-alpha-MSH from human MC1R expressed in HEK293 cells after 40 mins by gamma counting method; type: cell-based
Target sequence in this assay (Q01726 whole entry): as above

[11] = target: T2, Melanocortin receptor 5; assay: Agonist activity at human MC5R expressed in HEK293 cells assessed as induction of intracellular cAMP accumulation after 3 mins; type: functional, cell-based
[12] = target: T4, Melanocortin receptor 3; assay: Displacement of [125I]-NDP-alpha-MSH from human MC3R expressed in HEK293 cells after 40 mins by gamma counting method; type: cell-based
[13] = species on record: Homo sapiens; assay: Selectivity ratio of IC50 for human MC5R to IC50 for human MC3R
[14] = species on record: Homo sapiens; assay: Selectivity ratio of IC50 for human MC1R to IC50 for human MC3R
[15] = target: T2, Melanocortin receptor 5; assay: Displacement of [125I]-NDP-alpha-MSH from human MC5R expressed in HEK293 cells at 10 uM after 40 mins by gamma counting method; type: cell-based

T4 sequence (P41968 whole entry): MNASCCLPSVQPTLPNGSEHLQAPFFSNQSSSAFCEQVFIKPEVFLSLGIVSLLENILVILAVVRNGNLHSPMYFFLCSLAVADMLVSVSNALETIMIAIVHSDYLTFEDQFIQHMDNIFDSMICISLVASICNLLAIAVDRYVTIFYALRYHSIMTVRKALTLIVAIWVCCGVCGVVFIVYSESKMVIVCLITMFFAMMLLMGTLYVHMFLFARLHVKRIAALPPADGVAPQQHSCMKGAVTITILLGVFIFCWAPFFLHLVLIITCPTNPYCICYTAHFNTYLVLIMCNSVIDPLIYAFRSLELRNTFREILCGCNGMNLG
T2 sequence (P33032 whole entry): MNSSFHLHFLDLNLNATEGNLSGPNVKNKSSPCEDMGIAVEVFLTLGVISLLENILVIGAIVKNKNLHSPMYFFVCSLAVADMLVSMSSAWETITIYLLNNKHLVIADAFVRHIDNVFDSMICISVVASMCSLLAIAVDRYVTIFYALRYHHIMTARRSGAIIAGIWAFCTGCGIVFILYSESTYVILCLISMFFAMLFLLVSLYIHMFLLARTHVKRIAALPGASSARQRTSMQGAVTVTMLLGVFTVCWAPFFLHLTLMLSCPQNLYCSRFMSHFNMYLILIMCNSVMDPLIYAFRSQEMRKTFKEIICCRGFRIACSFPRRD
T1 sequence (P32245 whole entry): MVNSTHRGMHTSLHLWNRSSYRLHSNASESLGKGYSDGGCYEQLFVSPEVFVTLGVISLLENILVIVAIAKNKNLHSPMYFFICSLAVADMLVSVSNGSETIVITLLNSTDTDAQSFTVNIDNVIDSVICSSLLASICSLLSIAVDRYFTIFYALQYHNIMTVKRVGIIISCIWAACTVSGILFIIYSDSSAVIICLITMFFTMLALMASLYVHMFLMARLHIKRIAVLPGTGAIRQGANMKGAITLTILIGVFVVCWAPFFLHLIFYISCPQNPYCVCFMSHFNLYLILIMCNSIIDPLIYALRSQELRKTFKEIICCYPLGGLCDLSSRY

| SMILES | max activation [1] [%] | max activation [2] [%] | EC50 [3] [nM] | max activation [4] [%] | IC50 [5] [nM] | IC50 [6] [nM] | EC50 ([7]; read-out: EC50) [nM] | max activation [8] [%] | EC50 ([9]; read-out: EC50) [nM] | IC50 [10] [nM] | EC50 ([11]; read-out: EC50) [nM] | IC50 [12] [nM] | EC50 ([11]; hek293) | EC50 ([7]; hek293) | EC50 ([9]; hek293) | Ratio IC50 [13] | Ratio IC50 [14] | Activity [15] |
| --- | --- | --- | --- | --- | --- | --- | --- | --- | --- | --- | --- | --- | --- | --- | --- | --- | --- | --- |
| N=C(N)NCCC[C@@H]1NC(=O)[C@@H](Cc2ccccc2)NC(=O)[C@H](Cc2c[nH]cn2)NC(=O)C2(CCCCC2)NC(=O)CC[C@@H](C(N)=O)NC(=O)[C@H](Cc2c[nH]c3ccccc23)NC1=O | 100 | 100 | 57 | 100 | > 1000 | 630 | 120 | 100 | 4.1 | 99 | 1.9 | 74 |  |  |  |  |  |  |
| N=C(N)NCCC[C@@H]1NC(=O)[C@@H](Cc2ccc3ccccc3c2)NC(=O)[C@H](Cc2c[nH]cn2)NC(=O)C2(CCCCC2)NC(=O)C[C@@H](C(N)=O)NC(=O)[C@H](Cc2c[nH]c3ccccc23)NC1=O | 67 | 100 | 16 | 60 | 81 | > 1000 | 3.2 | 100 | 76 | 140 | 170 | 3.9 |  |  |  |  |  |  |
| N=C(N)NCCC[C@@H]1NC(=O)[C@@H](Cc2ccc3ccccc3c2)NC(=O)[C@H](Cc2c[nH]cn2)NC(=O)C2(CCC2)NC(=O)C[C@@H](C(N)=O)NC(=O)[C@H](Cc2c[nH]c3ccccc23)NC1=O | 70 | 100 | 48 | 50 | 320 | > 1000 | 270 | 100 | 3.2 | 112 | 560 | 5.1 |  |  |  |  |  |  |
| N=C(N)NCCC[C@@H]1NC(=O)[C@@H](Cc2ccc3ccccc3c2)NC(=O)[C@H](Cc2c[nH]cn2)NC(=O)C2(CCCC2)NC(=O)C[C@@H](C(N)=O)NC(=O)[C@H](Cc2c[nH]c3ccccc23)NC1=O | 67 | 100 | 14 | 42 | 73 | 160 | 110 | 100 | 1.9 | 290 | 96 | 16 |  |  |  |  |  |  |
| N=C(N)NCCC[C@@H]1NC(=O)[C@@H](Cc2ccccc2)NC(=O)[C@H](Cc2c[nH]cn2)NC(=O)C2(CCC2)NC(=O)C[C@@H](C(N)=O)NC(=O)[C@H](Cc2c[nH]c3ccccc23)NC1=O | 43 | 0 | 60 | 100 | > 1000 | > 1000 | 720 | 100 | 276 | > 1000 |  | > 1000 | Not Active |  |  |  |  |  |
| N=C(N)NCCC[C@@H]1NC(=O)[C@@H](Cc2ccc3ccccc3c2)NC(=O)[C@H](Cc2c[nH]cn2)NC(=O)C2(CCC2)NC(=O)CC[C@@H](C(N)=O)NC(=O)[C@H](Cc2c[nH]c3ccccc23)NC1=O ([Ac4c]H[d2Nal]RWE-NH2; lactam N-6) |  |  |  |  |  |  |  |  |  |  |  |  | Not Active | Not Active | Not Active |  |  |  |
| N=C(N)NCCC[C@@H]1NC(=O)[C@@H](Cc2ccccc2)NC(=O)[C@H](Cc2c[nH]cn2)NC(=O)C2(CCC2)NC(=O)CC[C@@H](C(N)=O)NC(=O)[C@H](Cc2c[nH]c3ccccc23)NC1=O ([Ac4c]H[dF]RWE-NH2; lactam N-6) | 75 | 100 | 25 | 100 | > 1000 | 380 | 150 | 100 |  | 55 | 2 | 55 |  |  |  | 1 | 7 |  |
| N=C(N)NCCC[C@@H]1NC(=O)[C@@H](Cc2ccc3ccccc3c2)NC(=O)[C@H](Cc2c[nH]cn2)NC(=O)C2(CCCC2)NC(=O)CC[C@@H](C(N)=O)NC(=O)[C@H](Cc2c[nH]c3ccccc23)NC1=O ([Ac5c]H[d2Nal]RWE-NH2; lactam N-6) | 74 | 0 | 108 | 82 | 100 | > 1000 | 130 | 100 |  | 43 |  |  | Not Active |  |  |  |  |  |
| N=C(N)NCCC[C@@H]1NC(=O)[C@@H](Cc2ccccc2)NC(=O)[C@H](Cc2c[nH]cn2)NC(=O)C2(CCCC2)NC(=O)C[C@@H](C(N)=O)NC(=O)[C@H](Cc2c[nH]c3ccccc23)NC1=O ([Ac5c]H[dF]RWD-NH2; lactam N-6) |  |  |  |  |  |  |  |  |  |  |  |  | Not Active |  |  |  |  | inactive |
| N=C(N)NCCC[C@@H]1NC(=O)[C@@H](Cc2ccccc2)NC(=O)[C@H](Cc2c[nH]cn2)NC(=O)C2(CCCC2)NC(=O)CC[C@@H](C(N)=O)NC(=O)[C@H](Cc2c[nH]c3ccccc23)NC1=O ([Ac5c]H[dF]RWE-NH2; lactam N-6) | 100 | 0 |  | 100 | > 1000 |  | 1000 | 100 |  | 93 |  | 59 | Not Active |  |  |  |  | inactive |
| N=C(N)NCCC[C@@H]1NC(=O)[C@@H](Cc2ccc3ccccc3c2)NC(=O)[C@H](Cc2c[nH]cn2)NC(=O)C2(CCCCC2)NC(=O)CC[C@@H](C(N)=O)NC(=O)[C@H](Cc2c[nH]c3ccccc23)NC1=O ([Ac6c]H[d2Nal]RWE-NH2; lactam N-6) |  |  |  |  |  |  |  |  |  |  |  |  | Not Active | Not Active | Not Active |  |  |  |
| N=C(N)NCCC[C@@H]1NC(=O)[C@@H](Cc2ccccc2)NC(=O)[C@H](Cc2c[nH]cn2)NC(=O)C2(CCCCC2)NC(=O)C[C@@H](C(N)=O)NC(=O)[C@H](Cc2c[nH]c3ccccc23)NC1=O ([Ac6c]H[dF]RWD-NH2; lactam N-6) |  |  |  |  |  |  |  |  |  |  |  |  | Not Active |  |  |  |  |  |
| CC1(C)NC(=O)C[C@@H](C(N)=O)NC(=O)[C@H](Cc2c[nH]c3ccccc23)NC(=O)[C@H](CCCNC(=N)N)NC(=O)[C@@H](Cc2ccc3ccccc3c2)NC(=O)[C@H](Cc2c[nH]cn2)NC1=O ([Aib]H[d2Nal]RWD-NH2; lactam N-6) | 100 | 24 | 67 | 83 | 44 | 165 | 6.7 | 100 | 73 | 180 | 18 |  |  |  |  |  |  |  |
| CC1(C)NC(=O)CC[C@@H](C(N)=O)NC(=O)[C@H](Cc2c[nH]c3ccccc23)NC(=O)[C@H](CCCNC(=N)N)NC(=O)[C@@H](Cc2ccc3ccccc3c2)NC(=O)[C@H](Cc2c[nH]cn2)NC1=O ([Aib]H[d2Nal]RWE-NH2; lactam N-6) |  |  |  |  |  |  |  |  |  |  |  |  | Not Active |  |  |  |  |  |
| CC1(C)NC(=O)C[C@@H](C(N)=O)NC(=O)[C@H](Cc2c[nH]c3ccccc23)NC(=O)[C@H](CCCNC(=N)N)NC(=O)[C@@H](Cc2ccccc2)NC(=O)[C@H](Cc2c[nH]cn2)NC1=O ([Aib]H[dF]RWD-NH2; lactam N-6) | 100 | 100 | 87 | 100 | 5.2 | > 1000 | 6.7 | 100 | 76 | 601 | 140 |  |  |  |  |  |  |  |
